Measured values reported in patent publication US10145845B2, “On-chip assay for environmental surveillance” (priority 2015, dated 2018).

Assays:
[1] = system: RAD54 protein; settings: yeast cells, H2O2 170, 1700 and 17,000 ppm for 60 minutes
[2] = drafted three tiered IDLHs; cited from earlier work

## OO [H2O2, Hydrogen peroxide]
[1]
  peak intensity of protein measured at 1390 cm^-1 (carboxylic band, SLISA): dose-dependent increase
[1]; SLISA and ELISA
  increase in RAD54 expression as compared to control (baseline expression by cells with no toxin exposure): ~4 fold
[2]
  IDLH tier II (lethal, long-lasting disabling effect): ≤ 1000 ppm
  IDLH tier III (lethal, life-threatening effect or even death): > 1000 ppm
